Measured values reported in ChEMBL document CHEMBL3091374, “New synthetic enediynes and their conjugates may provide effective treatment for cancer” (ACS Med Chem Lett, 2013).

Assays:
[1] = test system: NCI-H226; experiment: Antiproliferative activity against human NCI-H226 cells assessed as ATP level after 72 hrs by CellTiter-Glo assay; assay type: functional, cell-based; conditions: NCI-H226, 72 h
[2] = Antiproliferative activity against human 786-O cells assessed as ATP level after 72 hrs by CellTiter-Glo assay; assay type: functional, cell-based; conditions: 786-0, 72 h

Compound	EC50 [1] [nM]	EC50 [2] [nM]
C[C@@H](O)[C@@]12O[C@]13c1cc(O)c4c(c1N[C@H]2C#C/C=C\C#C[C@H]3O)C(=O)c1ccc(NCCN)cc1C4=O	0.986	1.27
C[C@@H](O)[C@@]12O[C@]13c1cc(O)c4c(c1N[C@H]2C#C/C=C\C#C[C@H]3O)C(=O)c1ccc(NC(=O)c2ccc(N)cc2)cc1C4=O	0.873	0.058
